Laboratory results reported in US10363288B2, “Insulin mimotopes and methods of using the same” (THE REGENTS OF THE UNIVERSITY OF COLORADO, a body corporate, priority 2015, dated 2019).

How the values were obtained:
CD4+CFSElo cells = test: T cell receptor V alpha gene sequencing of CD4+CFSElo cells after proliferation to peptide; assay type: cell-based, human; conditions: three HLA matched T1D subjects with two non-β57Asp DQ alleles; CD4+CFSElo cells vs baseline
Method: Three individuals had TCR α-chain sequencing performed on sorted CD4 T cells before peptide proliferation and then on CD4+CFSElo cells after one week of proliferation. Total RNA was directly extracted from sorted cells using the RNeasy Mini kit (Qiagen) for cells before proliferation and the PicoPure RNA isolation kit (Life Technologies) for those after proliferation. […] To amplify TCR-α and TCR-β chains, a two-step PCR was performed. PCR reactions were generated for α- and β-chains separately using the Universal Primer A Mix supplied from the SMARTer RACE cDNA Amplification Kit along with a primer designed on the constant region of α-[…] NO:22)) and β-chains […] NO:23)), respectively. The first PCR products were further amplified with nested primers ligated with the 454 adaptor sequences containing a multiple identifier sequence: forward primer for both α- and β-chains ([NT] NO:24)), reverse primer for α-chains […] NO:25)-multiple identifier sequence-[…] NO:26), and reverse primer for β-chains […] […] All sequences obtained from 454 sequencing were analyzed by the […]-QUEST algorithm (45) to identify Vgene, Jgene, and junction sequences, followed by additional analysis by in-house software to determine frequencies of Vgene usages by individual TCR sequences. Vgene frequencies determined by mean values from the 12 PCR reactions were analyzed for individual samples. […]

[1] = tested on: B:9-23 specific CD4 T cells; conditions: presented by IAg7; cited from earlier work

In the case of “SHLVEALYLVCGEEG [B: 9-23 B22E, B:9-23 mimotope; B22 arginine to glutamic acid]”, the “TCR V gene usage of alpha chains before and after proliferation” value (CD4+CFSElo cells) is listed as “skewing with several V alpha genes and one V delta gene” and the “stimulates B:9-23 specific CD4 T cells better than the wild type peptide” value [1] is listed as “about 100 fold”.
